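The compound was tested at five concentrations on cells cultured in 96-well plates, with a 48-hour exposure period. GI50 = concentration required for 50% inhibition of growth. Definition used: TGI = concentration required for complete inhibition of growth.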
Legend:
Assay in all cases: DTP human tumour cell line panel, 48 h
[1] = test system: NCI-H522 lung
[2] = test system: SF-539 CNS
[3] = test system: SW-620 colon
[4] = test system: NCI-H460 lung
[5] = test system: TK-10 renal
[6] = test system: HOP-92 NSCLC
[7] = test system: OVCAR-3 ovarian
[8] = test system: 786-0 renal
[9] = test system: BT-549 breast
[10] = test system: SNB-19 CNS

SMILES | GI50 [1] [µM] | TGI [1] [µM] | GI50 [2] [µM] | TGI [2] [µM] | GI50 [3] [µM] | TGI [3] [µM] | GI50 [4] [µM] | TGI [4] [µM] | GI50 [5] [µM] | TGI [5] [µM] | GI50 [6] [µM] | TGI [6] [µM] | GI50 [7] [µM] | TGI [7] [µM] | GI50 [8] [µM] | TGI [8] [µM] | GI50 [9] [µM] | TGI [9] [µM] | GI50 [10] [µM] | TGI [10] [µM]
COc1ccc(C2C3=C(COC3=O)N(CCO)c3cc4c(cc32)CCC4)cc1 (stereo not given) | 0.808 | 3.73 | 5.09 | 28.5 | 2.17 | > 50 | 2.37 | 26.9 | 3.36 | 39.9 | > 50 | > 50 | 1.07 | 2.97 | 4.8 | > 50 | 2.38 | 25.2 | 7.48 | > 50
C=C(CN1CCN(c2ccc(F)c(Cl)c2)CC1)c1ccc(C(=O)Nc2ccccc2N)cc1 | 1.8 | 5.33 | 5.79 | 26.2 | 5.37 | > 100 | 5.08 | > 100 | 18.2 | 97.5 | 2.15 | 11.6 | 6.18 | 58.9 | 2.88 | 13.4 | 3.51 | 26.5 | > 100 | > 100
CC(C)OP(=O)(OC(C)C)/C(C#N)=C/c1c[nH]c2ccccc12 | – | > 100 | – | > 100 | – | > 100 | – | > 100 | – | > 100 | – | > 100 | – | > 100 | – | > 100 | – | 89.3 | – | > 100
C=C1C(=O)OC2(C)CCC1CC1OC1(C)CCC=C(C)CCC2O (stereo not given) | – | > 100 | – | > 100 | – | > 100 | – | > 100 | – | > 100 | – | > 100 | – | > 100 | – | > 100 | – | > 100 | – | > 100
CNC(=O)c1cc(-c2ccc(F)cc2)cc(-c2ccc(S(=O)(=O)N3CCCC3)cc2)c1N | 22.3 | > 25 | > 25 | > 25 | 18.6 | > 25 | 15.1 | > 25 | > 25 | > 25 | 4.9 | > 25 | 18.2 | > 25 | 24.4 | > 25 | > 21.2 | > 25 | > 25 | > 25
CNc1nc(-c2ccc3c(N)n[nH]c3c2)cc(N2C[C@@H](C(=O)NC3CCCCC3)CC[C@H]2C)n1 | 4.52 | 18.3 | 3.76 | 17.8 | 6.85 | 23.4 | 1.5 | 15.7 | 0.366 | 9.46 | 0.189 | 3.99 | 2.16 | 15.6 | 3.28 | 14.6 | 1.91 | 12.3 | 4.42 | 18
C1CC[N-]CC1.CC(=N\O)/C(C)=N/O.CC(=N\O)/C(C)=N/O.C[CH-]C(C)O.[Co+2] | 10.3 | 22 | 24 | 94.4 | 23.5 | 66.8 | 16.8 | 30.5 | 23.8 | 60.4 | 19.4 | 48.6 | 17.4 | 51.7 | 33.9 | > 100 | 28.5 | 79.7 | 49.6 | > 100
COc1ccc2c(c1)C=CC1C2CC[C@]2(C)C(NC(=O)/C=C/c3ccc(O)c(O)c3)CCC12 (stereo not given in full) | 3.41 | 10.9 | 18.6 | 43.5 | 9.93 | 55.2 | 3.93 | 14.4 | 2.82 | 10.3 | 10.6 | 26.5 | 7.19 | 27.8 | 2.9 | 15.7 | 19.6 | 56.9 | 5.41 | 19.6
O=C1/C(=C/c2ccc(O)cc2)Oc2ccccc21 | – | 62 | – | > 100 | – | > 100 | – | > 100 | – | > 100 | – | > 100 | – | > 100 | – | > 100 | – | > 100 | – | > 100
CC1=C(SCCC(=O)OC(C[Se]C2=C(C)C(=O)c3ccccc3C2=O)C(=O)NC(C)(C)C)C(=O)c2ccccc2C1=O (stereo not given) | 1.57 | 3.4 | 1.44 | 2.75 | 1.36 | 2.87 | 0.44 | 2.06 | 2.52 | 4.1 | 0.793 | 2.13 | 1.43 | 2.74 | 1.57 | 2.91 | 1.64 | 3.05 | 0.867 | 2.08
CSc1nc2ccc(C)cc2cc1/C=C1/C=C(c2ccccc2)NC1=O | 3.53 | 42.5 | 2.35 | 9.66 | 2.62 | 92.1 | 0.646 | 10.9 | 2.63 | 8.46 | 2.85 | 13.4 | 1.78 | 15.9 | 2 | 5.89 | 3.94 | 22.9 | 4.6 | 33.5
CN1CCN(c2nc3cc(F)ccc3n3cccc23)CC1 | – | > 100 | – | 79.2 | – | > 100 | – | 43 | – | > 100 | – | > 100 | – | > 100 | – | > 100 | – | > 100 | – | > 100
